This note sets out measurements from patent US20250313547A1, “CEREBLON LIGANDS AND BIFUNCTIONAL COMPOUNDS COMPRISING THE SAME” (Arvinas Operations, Inc., priority 2017, published 2025).

The target of assay [1] is T1, Estrogen receptor-alpha (ERα) (Homo sapiens (Human), UniProt P03372). Kind of assay: ERα degradation assay in T47D cells. Format: cell-based. The note with it: 5 day incubation, read-out: ER degradation DC50.
Assay [2] concerns the target T1, Estrogen receptor-alpha (ERα). In words: ERα degradation assay using In-Cell Western in MCF7 cells. Format: cell-based. The conditions noted are these: read-out: ER degradation DC50. The procedure:
3. Estrogen Receptor-Alpha (ERα) Degradation Assay Using in-Cell Western™ Assay for Table 5.
Degradation of ERα by claimed compounds were determined in MCF7 cells using an In-Cell Western™ assay. Briefly, MCF7 cells were plated in 96-well plates (2000 cells per well in 100 μl media) and incubated at 37° C. under an atmosphere of 5% CO2 in a humidified incubator overnight. One-hundred (100) μl of media containing test compound (at 2× concentration) was added to the appropriate wells to provide 11 serially decreasing concentrations (top final concentration, 1 μM then 3-fold less for the next 10 concentrations); a vehicle control (DMSO) was also added for each compound. For each experiment, all compounds were assayed in duplicate plates. Cells were then incubated for 3 or 5 days in the above-mentioned environment. The assay was terminated by removal of media, a single wash with ice-cold PBS and the addition of 50 μl paraformaldehyde (PFA: 4% in PBS). After 15 minutes in PFA at room temperature, the cells were permeabilized in Tris-phosphate-buffered saline with Tween (0.1%) (TBST) supplemented with Triton X-100 (0.5%) for 15 minutes. Cells were then blocked in BSA (TBST with BSA, 3%) for one hour. […] The cells were incubated overnight at 4° C. The cells were then washed thrice with TBST at room temperature and then incubated with anti-rabbit and anti-mouse fluorescently-labelled secondary antibodies (IRDye®; LI-COR; Lincoln, NE) in LI-COR blocking buffer (Catalog #927-50000) for one hour at room temperature. Following 3 washes with TBST, the buffer was removed and the plates were read on an Odyssey® infrared imaging system (LI-COR®; Lincoln, NE) at 700 nm and 800 nm. Using commercial software (ImageStudio™; LI-COR, Lincoln, NE), the staining intensity for ERα and tubulin in each well was quantified and exported for analysis. For each data point, ERα intensity was normalized to tubulin intensity and for each compound all normalized intensity values were normalized to the vehicle control. DC50 and Dmax values were determined following a 4-parameter IC50 curve fit using ACAS dose response module (McNeil & Co Inc.).

Assay [3] relates to c-myc. Kind of assay: BRD4 human c-Myc ELISA assay in 22RV-1 cells. Format: cell-based. The conditions noted are these: 18 hours. The procedure: 6. BRD4 Human c-Myc ELISA Assay Protocol
22RV-1 cells were seeded at 30,000 cells/well at a volume of 75 µL/well in RPMI with 10% FBS media in 96-well plates and grown overnight at 37° C. Cells were dosed with compounds at 4× concentration diluted in 0.4% DMSO; compounds were serially diluted 1:3 for 8-point dose curve. Twenty-five (25) ul of the compounds was added to cells for a final concentration starting at 300 nM-0.3 nM or 1 uM-1 nM in 0.1% DMSO and incubated for 18 hours. Media was aspirated, cells were washed 1×with PBS and aspirated. Cells were lysed in 50 ul RIPA buffer (50 mM Tris pH8, 150 mM NaCl, 1% Tx-100, 0.1% SDS, 0.5% sodium deoxycholate) supplemented with protease and phosphatase inhibitors. Plates were incubated on ice for 15 minutes then centrifuged at 4° C. for 10 minutes at 4000 rpm. Fifty (50) ul of cleared lysate from a 96-well assay plate was added into 96-well c-myc ELISA plate (Novex, Life Technologies Catalog #KH02041). c-myc standard was reconstituted with standard diluent buffer; standard curve range of 333 pg/ml-0 pg/ml was prepared, diluted 1:2 for 8-point dose curve. The rest of the assay was performed following the protocol from the c-myc ELISA kit. Data was analyzed and plotted using GraphPad Prism software.
(In general: In an ELISA, binding on a coated surface is turned into a signal by an enzyme label.)

The test system of assay [4] is tau protein. Kind of assay: Tau protein in vitro degradation assay in SK-N-SH cells (Western blot). The note with it: % degraded, 72-hour incubation. In kind it is cell-based, human. The procedure: 10. Tau Protein In Vitro Degradation Assay
To determine effect of PROTACs on tau protein degradation SK-N-SH cells were seeded in a 24-well tissue culture-treated plate for at least 18-hours prior to compound addition. Tau PROTACs were evaluated for tau degradation by lysing the cells in RIPA buffer with protease inhibitors following a 72-hour incubation with tau PROTACs. Cell lysates were run on standard SDS-PAGE gels, and tau levels were detected by Western blotting using Tau-13 antibody from Abcam (Cambridge, UK) that binds to all forms of human tau.

A value given as a limit tells only on which side of the number the result lay.

T1 sequence (P03372 whole entry): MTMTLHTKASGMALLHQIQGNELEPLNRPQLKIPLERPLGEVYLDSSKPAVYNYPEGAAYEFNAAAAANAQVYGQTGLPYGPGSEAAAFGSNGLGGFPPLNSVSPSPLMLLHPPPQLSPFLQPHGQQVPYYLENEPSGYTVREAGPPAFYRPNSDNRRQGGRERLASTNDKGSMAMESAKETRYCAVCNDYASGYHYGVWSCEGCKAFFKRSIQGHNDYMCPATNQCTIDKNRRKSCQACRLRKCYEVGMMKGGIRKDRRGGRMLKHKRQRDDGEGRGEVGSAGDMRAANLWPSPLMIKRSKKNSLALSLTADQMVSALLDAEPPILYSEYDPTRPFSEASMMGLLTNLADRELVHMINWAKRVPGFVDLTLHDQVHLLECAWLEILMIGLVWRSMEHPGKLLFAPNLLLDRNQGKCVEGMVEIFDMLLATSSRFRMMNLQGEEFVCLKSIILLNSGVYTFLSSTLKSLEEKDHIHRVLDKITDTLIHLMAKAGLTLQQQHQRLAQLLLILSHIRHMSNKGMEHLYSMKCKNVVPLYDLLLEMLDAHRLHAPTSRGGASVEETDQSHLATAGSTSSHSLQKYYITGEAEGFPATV

What is called DC50 is the concentration at which degradation of the target reaches its halfway point. As for `CCN(C(=O)c1ccc(N2CCN(CCCCCOc3ccc([C@@H]4c5ccc(O)cc5CC[C@@H]4c4ccccc4)cc3)CC2)cc1OC)C1CCC(=O)NC1=O` (mixture of isomers) [PROTAC-92, rac-N-(2,6-dioxopiperidin-3-yl)-N-ethyl-4-(4-(5-(4-((1R,2S)-6-hydroxy-2-phenyl-1,2,3,4-tetrahydronaphthalen-1-yl)phenoxy)pentyl)piperazin-1-yl)-2-methoxybenzamide], the half-maximal degradation concentration (DC50) in assay [1] is ≥ 100 nM.
`O=C1CCC(N2CC(Oc3cccc(C4CCN(CCCCOc5ccc([C@@H]6c7ccc(O)cc7CC[C@@H]6c6ccccc6)cc5)CC4)c3)=CC2=O)C(=O)N1` (mixture of isomers) [PROTAC-104, rac-3-(4-(3-(1-(4-(4-((1R,2S)-6-hydroxy-2-phenyl-1,2,3,4-tetrahydronaphthalen-1-yl)phenoxy)butyl)piperidin-4-yl)phenoxy)-2-oxo-2,5-dihydro-1H-pyrrol-1-yl)piperidine-2,6-dione]: the DC50 in assay [1] is ≥ 100 nM.
Consider `O=C1CCC(N2CC(Oc3cccc(C4CCN(CCCOc5ccc([C@H]6c7ccc(O)cc7CC[C@H]6c6ccccc6)cc5)CC4)c3)=CC2=O)C(=O)N1` (mixture of isomers) [PROTAC-105, rac-3-(4-(3-(1-(3-(4-((1R,2S)-6-hydroxy-2-phenyl-1,2,3,4-tetrahydronaphthalen-1-yl)phenoxy)propyl)piperidin-4-yl)phenoxy)-2-oxo-2,5-dihydro-1H-pyrrol-1-yl)piperidine-2,6-dione], for which the 50% degradation concentration (DC50) in assay [1] is ≥ 100 nM.
Take `O=C1CCC(N2CC(Oc3cccc(C4CCN(CCCCOc5ccc([C@H]6c7ccc(O)cc7CC[C@H]6c6ccccc6)cc5)CC4)c3)=CC2=O)C(=O)N1` (mixture of isomers) [PROTAC-109, rac-3-(4-(3-(1-(4-(4-((1R,2S)-6-hydroxy-2-phenyl-1,2,3,4-tetrahydronaphthalen-1-yl)phenoxy)butyl)piperidin-4-yl)phenoxy)-2-oxo-2,5-dihydro-1H-pyrrol-1-yl)piperidine-2,6-dione]: the DC50 in assay [1] was ≥ 100 nM.
For `O=C1CCC(n2cc(-c3ccc(N4CCN(CCCOc5ccc([C@@H]6c7ccc(O)cc7CC[C@@H]6c6ccccc6)cc5)CC4)cc3)cn2)C(=O)N1` (mixture of isomers) [PROTAC-110, rac-3-(4-(4-(4-(3-(4-((1R,2S)-6-hydroxy-2-phenyl-1,2,3,4-tetrahydronaphthalen-1-yl)phenoxy)propyl)piperazin-1-yl)phenyl)-1H-pyrazol-1-yl)piperidine-2,6-dione], the 50% degradation concentration (DC50) in assay [2] (5 day incubation) was < 1 nM.
Turning to `Cc1sc2c(c1C)C(c1ccc(Cl)cc1)=NC(CC(=O)NCCCOCCCOc1ccc3ncc(-n4ccc(=O)[nH]c4=O)cc3c1)c1nnc(C)n1-2` (stereo not drawn) [PROTAC-1, 2-(4-(4-chlorophenyl)-2,3,9-trimethyl-6H-thieno[3,2-f][1,2,4]triazolo[4,3-a][1,4]diazepin-6-yl)-N-(3-(3-((3-(2,4-dioxo-3,4-dihydropyrimidin-1(2H)-yl)quinolin-6-yl)oxy)propoxy)propyl)acetamide], the “IMax Myc” value in assay [3] is given as 40C (C <= 50).
As to `O=C1CCC(N2CC(c3ccc(N4CCN(CC5CCN(c6ccc([C@@H]7c8ccc(O)cc8CC[C@@H]7c7ccccc7)cc6)CC5)CC4)cc3)=CC2=O)C(=O)N1` (stereo partly drawn) [PROTAC-89, 3-[3-[4-[4-[[1-[4-[(1R,2S)-6-hydroxy-2-phenyl-tetralin-1-yl]phenyl]-4-piperidyl]methyl]piperazin-1-yl]phenyl]-5-oxo-2H-pyrrol-1-yl]piperidine-2,6-dione], the DC50 in assay [2] (5 day incubation) fell in the range of 1 to 10 nM.
With `O=C1CCC(n2ncc(N3CCN(CC4CCN(c5ccc([C@@H]6c7ccc(O)cc7CC[C@@H]6c6ccccc6)cc5)CC4)CC3)cc2=O)C(=O)N1` (stereo partly drawn) [PROTAC-102, 3-[4-[4-[[1-[4-[(1R,2S)-6-hydroxy-2-phenyl-tetralin-1-yl]phenyl]-4-piperidyl]methyl]piperazin-1-yl]-6-oxo-pyridazin-1-yl]piperidine-2,6-dione], the DC50 in assay [2] (5 day incubation) lay within 1 to 10 nM.
In the case of `O=C1CCC(N2CC(Oc3cccc(C4CCN(CCCOc5ccc([C@@H]6c7ccc(O)cc7CC[C@@H]6c6ccccc6)cc5)CC4)c3)=CC2=O)C(=O)N1` (stereo partly drawn) [PROTAC-106, 3-(4-(3-(1-(3-(4-((1R,2S)-6-hydroxy-2-phenyl-1,2,3,4-tetrahydronaphthalen-1-yl)phenoxy)propyl)piperidin-4-yl)phenoxy)-2-oxo-2,5-dihydro-1H-pyrrol-1-yl)piperidine-2,6-dione], the DC50 in assay [1] is 1 to 10 nM.
For `Cc1nc2c(NCCN3CCN(CCOc4ccc(Oc5c(-c6ccc(Br)cc6)sc6cc(O)ccc56)cc4)CC3)cccc2c(=O)n1C1CCC(=O)NC1=O` (stereo not drawn) [PROTAC-107, 3-(8-((2-(4-(2-(4-((2-(4-bromophenyl)-6-hydroxybenzo[b]thiophen-3-yl)oxy)phenoxy)ethyl)piperazin-1-yl)ethyl)amino)-2-methyl-4-oxoquinazolin-3(4H)-yl)piperidine-2,6-dione], the DC50 in assay [2] (3 day incubation) is ≥ 100 nM.
For the molecule `Cc1nc2c(OCCN3CCN(CCOc4ccc(Oc5c(-c6ccc(Br)cc6)sc6cc(O)ccc56)cc4)CC3)cccc2c(=O)n1C1CCC(=O)NC1=O` (stereo not drawn) [PROTAC-108, 3-(8-(2-(4-(2-(4-((2-(4-bromophenyl)-6-hydroxybenzo[b]thiophen-3-yl)oxy)phenoxy)ethyl)piperazin-1-yl)ethoxy)-2-methyl-4-oxoquinazolin-3(4H)-yl)piperidine-2,6-dione], the DC50 in assay [2] (3 day incubation) is ≥ 100 nM.
As to `Cn1c2ccncc2c2ccc(-c3ccc(OCCOCCOCCOCCOCCN4CCC5(CC4)CC(=O)N(C4CCC(=O)NC4=O)C5=O)nc3)cc21` (stereo not drawn) [PROTAC-112, 2-(2,6-dioxopiperidin-3-yl)-8-(14-((5-(5-methyl-5H-pyrido[4,3-b]indol-7-yl)pyridin-2-yl)oxy)-3,6,9,12-tetraoxatetradecyl)-2,8-diazaspiro[4.5]decane-1,3-dione], the “Tau degradation % DMax” value in assay [4] was “C (C <= 50)”.
